This note sets out measurements from ChEMBL document CHEMBL4334472, “Multi-target-directed-ligands acting as enzyme inhibitors and receptor ligands” (Eur J Med Chem, 2019).

The structures appear in SMILES notation. pEC50, pIC50, pKi: −log10 of the molar value.

Test [1] addresses 5-hydroxytryptamine receptor 6 (Homo sapiens, UniProt P50406). Put plainly: Displacement of [3H]-LSD from recombinant human 5HT6 receptor expressed in CHOK1 cells measured after 60 mins by microbeta scintillation counting method. It is filed as cell-based.
For test [2], the target named is T1, Acetylcholinesterase (Homo sapiens, UniProt P22303). The experiment in a line: Inhibition of recombinant human AChE using acetylthiocholine iodide as substrate preincubated for 5 mins followed by substrate addition measured after 5 mins.
T1 sequence (P22303 whole entry): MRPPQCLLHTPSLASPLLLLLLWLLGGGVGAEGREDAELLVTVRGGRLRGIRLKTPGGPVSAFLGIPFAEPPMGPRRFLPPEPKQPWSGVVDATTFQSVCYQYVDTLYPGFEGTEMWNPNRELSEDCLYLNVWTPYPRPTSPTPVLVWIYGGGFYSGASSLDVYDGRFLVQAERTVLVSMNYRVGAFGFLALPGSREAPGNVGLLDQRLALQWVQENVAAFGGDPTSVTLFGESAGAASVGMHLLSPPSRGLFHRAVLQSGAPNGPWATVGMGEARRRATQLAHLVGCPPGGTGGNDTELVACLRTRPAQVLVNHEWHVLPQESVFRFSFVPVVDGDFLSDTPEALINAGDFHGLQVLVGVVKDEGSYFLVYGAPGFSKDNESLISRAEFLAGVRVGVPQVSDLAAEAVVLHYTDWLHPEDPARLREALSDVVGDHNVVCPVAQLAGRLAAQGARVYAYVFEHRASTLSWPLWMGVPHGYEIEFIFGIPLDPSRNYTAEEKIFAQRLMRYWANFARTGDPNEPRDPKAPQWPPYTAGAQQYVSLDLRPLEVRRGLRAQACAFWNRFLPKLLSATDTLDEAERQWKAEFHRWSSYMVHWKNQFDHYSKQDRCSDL
Test [3] deals with T2, Cholinesterase (Homo sapiens, UniProt P06276). Put plainly: Inhibition of recombinant human BChE using butyrylthiocholine iodide as substrate preincubated for 5 mins followed by substrate addition measured after 5 mins.
T2 sequence (P06276 whole entry): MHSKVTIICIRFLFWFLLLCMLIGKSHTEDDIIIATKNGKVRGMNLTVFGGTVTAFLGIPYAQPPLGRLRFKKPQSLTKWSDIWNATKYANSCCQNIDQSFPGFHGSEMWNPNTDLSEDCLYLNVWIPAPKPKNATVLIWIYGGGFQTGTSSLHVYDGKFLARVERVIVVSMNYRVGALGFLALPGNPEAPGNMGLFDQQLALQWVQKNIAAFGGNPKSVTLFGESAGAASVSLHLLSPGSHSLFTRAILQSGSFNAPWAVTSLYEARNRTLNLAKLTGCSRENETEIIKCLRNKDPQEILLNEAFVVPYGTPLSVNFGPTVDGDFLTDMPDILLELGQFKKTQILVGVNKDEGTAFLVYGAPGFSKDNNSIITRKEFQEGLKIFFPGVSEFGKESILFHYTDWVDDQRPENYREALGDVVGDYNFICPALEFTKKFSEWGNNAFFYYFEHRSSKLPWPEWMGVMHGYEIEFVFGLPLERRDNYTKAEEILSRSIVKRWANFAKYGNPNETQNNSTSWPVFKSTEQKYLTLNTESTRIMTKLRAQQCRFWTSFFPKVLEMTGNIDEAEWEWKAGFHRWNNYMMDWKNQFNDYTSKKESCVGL
For test [4], the target named is Prostaglandin G/H synthase 1 (Homo sapiens, UniProt P23219). Put plainly: Inhibition of COX1 in human platelets after 30 mins by mass spectrometry analysis.
Sequence of Prostaglandin G/H synthase 1 (Homo sapiens, UniProt P23219) (P23219 whole entry): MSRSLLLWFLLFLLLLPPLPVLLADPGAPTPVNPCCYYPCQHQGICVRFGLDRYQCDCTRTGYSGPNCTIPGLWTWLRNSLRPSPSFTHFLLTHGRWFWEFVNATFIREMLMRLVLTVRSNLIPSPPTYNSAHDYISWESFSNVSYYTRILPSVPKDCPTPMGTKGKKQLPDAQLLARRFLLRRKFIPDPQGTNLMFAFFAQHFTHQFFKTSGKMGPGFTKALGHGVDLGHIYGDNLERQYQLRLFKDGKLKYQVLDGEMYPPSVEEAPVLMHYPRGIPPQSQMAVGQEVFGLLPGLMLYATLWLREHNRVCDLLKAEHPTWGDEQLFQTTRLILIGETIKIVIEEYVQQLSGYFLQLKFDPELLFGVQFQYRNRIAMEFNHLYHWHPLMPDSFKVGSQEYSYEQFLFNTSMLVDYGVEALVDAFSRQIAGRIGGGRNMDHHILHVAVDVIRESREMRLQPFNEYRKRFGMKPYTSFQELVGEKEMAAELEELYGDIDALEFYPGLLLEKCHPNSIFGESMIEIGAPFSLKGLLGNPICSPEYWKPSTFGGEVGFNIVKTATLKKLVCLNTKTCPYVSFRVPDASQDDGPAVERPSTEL
Test [5] addresses Prostaglandin G/H synthase 2 (Homo sapiens, UniProt P35354). The experiment in a line: Inhibition of COX2 in lympho-monocytes (unknown origin) preincubated for 30 mins followed by LPS challenged measured after 24 hrs by EIA. The test is classed as cell-based.
The target of test [6] is Thromboxane A2 receptor (Homo sapiens) (UniProt P21731). The experiment in a line: Antagonist activity at TP receptor in human washed platelet assessed as U46619 induced platelet aggregation after 6 mins. Set-up: scale not given: the % may be the effect or the level left.
Sequence of Thromboxane A2 receptor (Homo sapiens) (P21731 whole entry): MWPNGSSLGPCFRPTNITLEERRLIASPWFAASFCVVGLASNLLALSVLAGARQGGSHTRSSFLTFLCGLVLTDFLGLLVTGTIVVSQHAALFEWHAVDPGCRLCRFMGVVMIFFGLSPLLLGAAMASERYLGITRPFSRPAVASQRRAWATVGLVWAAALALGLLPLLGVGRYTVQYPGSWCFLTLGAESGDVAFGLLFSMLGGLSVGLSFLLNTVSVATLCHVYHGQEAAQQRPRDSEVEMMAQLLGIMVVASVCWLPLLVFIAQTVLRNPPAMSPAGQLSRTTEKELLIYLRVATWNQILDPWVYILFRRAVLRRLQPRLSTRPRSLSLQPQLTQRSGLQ
Test [7] has as its target Amine oxidase [flavin-containing] A (Homo sapiens, UniProt P21397). Put plainly: Inhibition of human MAOA.
Test [8] deals with Transient receptor potential cation channel subfamily V member 1 (Homo sapiens, UniProt Q8NER1). Put plainly: Inhibition of TRPV1 (unknown origin).
Test [9] has as its target Prostaglandin G/H synthase 1 (Ovis aries, UniProt P05979). Put plainly: Inhibition of ovine COX1.
Test [10] has as its target Prostaglandin G/H synthase 2 (Ovis aries, UniProt P79208). The experiment in a line: Inhibition of ovine COX2.
For test [11], the target named is 5-hydroxytryptamine receptor 1A (Mus musculus, UniProt Q64264). Put plainly: Agonist activity at mouse 5-HT1A expressed in HEK293 cells after 2 to 5 mins. It is filed as cell-based.
Test [12] concerns the target Acetylcholinesterase (Rattus norvegicus, UniProt P37136). Put plainly: Inhibition of rat AChE.
In a further test the target is Butyrylcholinesterase (Rattus norvegicus, UniProt Q9JKC1). The experiment in a line: Inhibition of rat BChE.
Test [13] has as its target Sodium-dependent serotonin transporter (Homo sapiens, UniProt P31645). The experiment in a line: Inhibition of 5HTT (unknown origin).
The target in test [14] is Amine oxidase [flavin-containing] B (Homo sapiens, UniProt P27338). The experiment in a line: Inhibition of human MAOB.
The next test addresses Beta-secretase 1 (Homo sapiens, UniProt P56817). The experiment in a line: Inhibition of BACE1 (unknown origin) using EVNLDAEF as substrate by fluorescence assay.
Test [15] has as its target T1, Acetylcholinesterase. Put plainly: Inhibition of human AChE.
In test [16] the target is T2, Cholinesterase. Put plainly: Inhibition of human BChE.
In test [17] the target is Amyloid-beta precursor protein (Homo sapiens) (UniProt P05067). The experiment in a line: Inhibition of amyloid beta (1 to 42 residues) (unknown origin) self aggregation at 10 uM ThT-based fluorescence assay relative to control.
Sequence of Amyloid-beta precursor protein (Homo sapiens) (P05067 whole entry, the tested form may be a part): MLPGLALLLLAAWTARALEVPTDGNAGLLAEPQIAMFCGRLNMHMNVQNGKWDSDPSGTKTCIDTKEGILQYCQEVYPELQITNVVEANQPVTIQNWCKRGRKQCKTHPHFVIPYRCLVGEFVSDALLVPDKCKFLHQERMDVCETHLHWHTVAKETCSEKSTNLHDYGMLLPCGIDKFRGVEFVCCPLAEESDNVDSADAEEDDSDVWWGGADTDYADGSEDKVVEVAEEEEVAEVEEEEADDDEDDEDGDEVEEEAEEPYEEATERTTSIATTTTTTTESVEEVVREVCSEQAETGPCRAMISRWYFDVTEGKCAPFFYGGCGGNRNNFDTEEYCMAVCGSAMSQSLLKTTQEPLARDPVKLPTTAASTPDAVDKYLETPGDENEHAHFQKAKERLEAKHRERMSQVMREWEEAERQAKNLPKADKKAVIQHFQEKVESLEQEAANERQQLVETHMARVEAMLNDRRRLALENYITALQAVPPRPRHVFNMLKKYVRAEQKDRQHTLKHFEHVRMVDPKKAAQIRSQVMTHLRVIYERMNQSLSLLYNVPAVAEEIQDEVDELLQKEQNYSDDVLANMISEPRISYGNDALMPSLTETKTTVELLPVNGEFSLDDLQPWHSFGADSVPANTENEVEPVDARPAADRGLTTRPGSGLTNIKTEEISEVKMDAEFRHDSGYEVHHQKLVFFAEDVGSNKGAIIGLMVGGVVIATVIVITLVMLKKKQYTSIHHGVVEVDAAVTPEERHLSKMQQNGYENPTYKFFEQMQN
A short description of test [18]: Inhibition of nAChR (unknown origin) after 1 to 2 mins. Set-up: species or system Homo sapiens.
The target of test [19] is Muscarinic acetylcholine receptor M1 (Homo sapiens, UniProt P11229). The experiment in a line: Inhibition of M1R (unknown origin).
Sequence of Muscarinic acetylcholine receptor M1 (P11229 whole entry): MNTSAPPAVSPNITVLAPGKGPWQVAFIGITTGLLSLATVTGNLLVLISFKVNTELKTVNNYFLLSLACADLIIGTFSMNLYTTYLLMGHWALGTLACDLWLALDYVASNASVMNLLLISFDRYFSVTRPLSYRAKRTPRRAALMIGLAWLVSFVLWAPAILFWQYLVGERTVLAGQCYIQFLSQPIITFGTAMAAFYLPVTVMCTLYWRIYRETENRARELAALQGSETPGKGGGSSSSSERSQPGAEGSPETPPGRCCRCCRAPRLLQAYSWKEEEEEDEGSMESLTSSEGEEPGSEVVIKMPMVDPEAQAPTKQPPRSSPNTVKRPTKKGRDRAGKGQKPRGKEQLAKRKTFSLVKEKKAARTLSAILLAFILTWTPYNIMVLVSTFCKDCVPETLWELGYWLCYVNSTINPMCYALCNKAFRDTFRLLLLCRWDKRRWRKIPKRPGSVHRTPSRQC
In a further test the target is Histamine H3 receptor (Homo sapiens, UniProt Q9Y5N1). The experiment in a line: Inhibition of human histamine H3 receptor.
The target of test [20] is Cholinesterase (Equus caballus, UniProt P81908). Put plainly: Inhibition of equine BChE.
Sequence of Cholinesterase (Equus caballus, UniProt P81908) (P81908 whole entry): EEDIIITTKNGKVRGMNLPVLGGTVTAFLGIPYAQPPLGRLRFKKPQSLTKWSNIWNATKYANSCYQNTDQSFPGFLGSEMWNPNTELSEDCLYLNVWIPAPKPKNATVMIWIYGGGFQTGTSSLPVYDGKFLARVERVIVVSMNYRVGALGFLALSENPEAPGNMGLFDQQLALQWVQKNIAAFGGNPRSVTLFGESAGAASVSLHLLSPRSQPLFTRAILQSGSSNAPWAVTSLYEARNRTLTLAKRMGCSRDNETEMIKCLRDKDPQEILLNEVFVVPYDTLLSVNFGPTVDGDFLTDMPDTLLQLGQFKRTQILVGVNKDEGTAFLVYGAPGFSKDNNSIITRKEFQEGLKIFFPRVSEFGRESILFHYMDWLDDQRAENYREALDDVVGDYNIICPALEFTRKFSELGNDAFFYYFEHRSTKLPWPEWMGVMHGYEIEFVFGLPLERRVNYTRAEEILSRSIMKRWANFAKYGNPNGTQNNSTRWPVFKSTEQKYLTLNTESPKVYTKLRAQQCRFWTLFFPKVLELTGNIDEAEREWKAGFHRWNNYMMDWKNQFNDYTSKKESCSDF
In test [21] the target is Neuronal acetylcholine receptor subunit alpha-7 (Homo sapiens, UniProt P36544). Put plainly: Inhibition of alpha7 nAChR (unknown origin).
The target of test [22] is Neuronal acetylcholine receptor; alpha4/beta2 (Homo sapiens, UniProt P17787+P43681). Put plainly: Inhibition of alpha4beta2 nAChR (unknown origin). The test is classed as protein-complex assay.

Sequence of Prostaglandin G/H synthase 2 (Homo sapiens, UniProt P35354) (P35354 whole entry): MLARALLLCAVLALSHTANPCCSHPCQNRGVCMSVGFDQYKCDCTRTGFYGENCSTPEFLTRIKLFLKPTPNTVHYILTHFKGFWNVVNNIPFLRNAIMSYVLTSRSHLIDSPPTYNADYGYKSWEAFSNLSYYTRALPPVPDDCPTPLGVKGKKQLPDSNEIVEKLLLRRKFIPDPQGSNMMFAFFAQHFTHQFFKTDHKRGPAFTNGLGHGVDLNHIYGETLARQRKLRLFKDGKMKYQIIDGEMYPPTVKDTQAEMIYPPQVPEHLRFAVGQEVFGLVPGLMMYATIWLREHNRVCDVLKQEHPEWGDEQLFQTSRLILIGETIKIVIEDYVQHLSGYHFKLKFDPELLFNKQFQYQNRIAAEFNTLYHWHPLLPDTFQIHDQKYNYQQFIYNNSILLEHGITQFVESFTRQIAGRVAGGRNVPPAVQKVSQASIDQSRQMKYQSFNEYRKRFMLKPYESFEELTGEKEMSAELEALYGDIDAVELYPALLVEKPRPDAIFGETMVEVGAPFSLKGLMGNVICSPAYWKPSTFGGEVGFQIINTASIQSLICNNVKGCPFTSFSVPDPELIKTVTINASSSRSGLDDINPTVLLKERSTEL
Sequence of 5-hydroxytryptamine receptor 6 (P50406 whole entry): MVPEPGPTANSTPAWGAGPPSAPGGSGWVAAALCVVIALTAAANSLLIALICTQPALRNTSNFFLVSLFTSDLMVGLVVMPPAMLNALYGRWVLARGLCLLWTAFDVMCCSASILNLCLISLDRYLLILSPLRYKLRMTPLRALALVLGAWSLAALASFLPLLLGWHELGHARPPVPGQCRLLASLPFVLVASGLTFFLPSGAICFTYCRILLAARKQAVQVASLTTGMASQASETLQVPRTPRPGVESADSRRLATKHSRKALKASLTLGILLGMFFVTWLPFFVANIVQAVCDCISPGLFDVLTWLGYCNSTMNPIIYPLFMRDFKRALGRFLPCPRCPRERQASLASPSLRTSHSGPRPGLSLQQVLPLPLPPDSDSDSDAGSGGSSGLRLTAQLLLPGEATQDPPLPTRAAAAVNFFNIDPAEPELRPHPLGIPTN

As usually defined, the pKi is the negative decadic logarithm of the Ki, by convention in mol/L. A word on the pIC50: it is the negative decadic logarithm of the IC50, by convention in mol/L. In the case of `Cc1c(OCc2ccccc2)cccc1N1CCN(CCCCCCNc2c3c(nc4c2CCCC4)CCCC3)CC1`, the pKi in [1] is 7.74. The pIC50 at Acetylcholinesterase [2] is 7.85; at Cholinesterase [3] it was 7.66.

Take `Cc1ccc(Nc2c(F)cccc2Cl)c(CNc2nnn[nH]2)c1`: the results for the negative-log IC50 (pIC50) in test [4] and in [5] were 4.88 and 7.85, respectively. In test [6], the Activity turned out to be 5.6%.

As to `CN(CCCN1CCN(c2cccc3c2ccn3Cc2ccccc2)CC1)Cc1ccccc1`, the pKi in [1] is 6.62. For the same compound, the pIC50 on Cholinesterase [3] is 6.71.

In turn, `C#CCN(C)Cc1cc2cc(OCCCC3CCN(Cc4ccccc4)CC3)ccc2n1C` showed a negative-log IC50 (pIC50) in test [7] of 9.52.

On to `CC[C@@H](/C=C/[C@@H](C)[C@H]1CC[C@H]2C3=CC[C@H]4C[C@@H](O)CC[C@]4(C)[C@H]3CC[C@]12C)C(C)C`, for which the results for the pIC50 in test [8], in [9] and in [10] were 5.85, 4.79 and 5.11, respectively.

Regarding `Cc1ccc(Nc2c(F)cccc2Cl)c(CNS(=O)(=O)C(F)(F)F)c1`, the negative logarithm of the IC50 (pIC50) in test [4] was 4.79; in test [5], 6.40. The Activity in test [6] is 5.9%.

By pEC50 is commonly meant −log10 of the EC50, conventionally taken in molar units. Compound `N#Cc1ccc2[nH]cc(CCCCN3CCN(c4c5c(nc6ccccc46)CCCC5)CC3)c2c1` showed a negative-log EC50 (pEC50) in test [11] of 6.97. Also, the values for the pIC50 (at Acetylcholinesterase [12]; against Butyrylcholinesterase; in [13]) were 7.12, 5.48 and 7.80, respectively.

Regarding `O=C(c1ccc(OCCCc2cnc[nH]2)cc1)C1CC1` [CIPROXIFAN], in test [14], the negative logarithm of the IC50 (pIC50) is 5.72.

In general, inhibition refers to the percentage by which the read-out fell short of the control. As to `COc1ccc2nc3c(c(NCCCCCCCCNC(=S)NC45CC6CC(CC(C6)C4)C5)c2c1)CCCC3`, the negative logarithm of the IC50 (pIC50) at Beta-secretase 1 was 4.74; against Acetylcholinesterase [15], 5.80; at Cholinesterase [16], 6.52; in test [18], 5.96; in test [19], 5.66. The compound further registered an inhibition in test [17] of 77%.

With `COc1cc2c(cc1OC)-c1cc(OCCN3CCCCC3)nc(=O)n1CC2`, the pIC50 on Acetylcholinesterase [15] is 5.30.

In the case of `O=c1c2cc(OCCCN3CCCCC3)ccc2nc2n1CCC2`, at Histamine H3 receptor, the negative-log Ki (pKi) was 5.60. The pIC50 was 5.27 against Acetylcholinesterase [15] and 3.61 on Cholinesterase [20].

`COc1ccccc1CN1CCN(CCCCCOc2cccc3[nH]c4ccccc4c23)CC1`: the pIC50 against Acetylcholinesterase [15] was 5.62; on Cholinesterase [16], 6.22. In test [17], this compound came in with an inhibition of 34%. Also, the values for the negative-log Ki (pKi) in test [21] and in [22] were 4.18 and 4.45, respectively.
